Reference: ChEMBL document CHEMBL1130592, “The synthesis and biological activity of a novel series of diazepine MMP inhibitors” (Bioorg Med Chem Lett, 1998)

How the values were obtained:
[1] = target: Matrix metalloproteinase-9 (Homo sapiens, UniProt P14780); test: Inhibition of matrix metalloprotease-9 (MMP-9)
Collagenase 3 = Collagenase 3 (Homo sapiens, UniProt P45452)
Description: Inhibition of matrix metalloprotease-13 (MMP-13)

Interstitial collagenase = target: T1, Interstitial collagenase (Homo sapiens, UniProt P03956); test: Inhibition of matrix metalloprotease-1 (MMP-1)
T1 sequence (P03956 whole entry): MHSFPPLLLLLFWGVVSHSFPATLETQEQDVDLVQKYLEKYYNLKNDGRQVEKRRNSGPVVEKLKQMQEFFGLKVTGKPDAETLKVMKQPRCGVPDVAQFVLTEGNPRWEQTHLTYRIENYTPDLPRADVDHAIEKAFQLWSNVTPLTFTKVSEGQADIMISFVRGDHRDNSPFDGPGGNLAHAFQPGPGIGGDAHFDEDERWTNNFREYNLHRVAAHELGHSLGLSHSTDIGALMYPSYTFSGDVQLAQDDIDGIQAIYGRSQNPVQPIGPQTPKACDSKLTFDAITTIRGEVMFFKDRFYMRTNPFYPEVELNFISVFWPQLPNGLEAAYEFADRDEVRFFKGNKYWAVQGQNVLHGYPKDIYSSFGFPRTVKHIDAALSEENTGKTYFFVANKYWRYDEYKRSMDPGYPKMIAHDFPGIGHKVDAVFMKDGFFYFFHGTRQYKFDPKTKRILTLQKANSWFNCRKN

Sequence of Matrix metalloproteinase-9 (P14780 whole entry): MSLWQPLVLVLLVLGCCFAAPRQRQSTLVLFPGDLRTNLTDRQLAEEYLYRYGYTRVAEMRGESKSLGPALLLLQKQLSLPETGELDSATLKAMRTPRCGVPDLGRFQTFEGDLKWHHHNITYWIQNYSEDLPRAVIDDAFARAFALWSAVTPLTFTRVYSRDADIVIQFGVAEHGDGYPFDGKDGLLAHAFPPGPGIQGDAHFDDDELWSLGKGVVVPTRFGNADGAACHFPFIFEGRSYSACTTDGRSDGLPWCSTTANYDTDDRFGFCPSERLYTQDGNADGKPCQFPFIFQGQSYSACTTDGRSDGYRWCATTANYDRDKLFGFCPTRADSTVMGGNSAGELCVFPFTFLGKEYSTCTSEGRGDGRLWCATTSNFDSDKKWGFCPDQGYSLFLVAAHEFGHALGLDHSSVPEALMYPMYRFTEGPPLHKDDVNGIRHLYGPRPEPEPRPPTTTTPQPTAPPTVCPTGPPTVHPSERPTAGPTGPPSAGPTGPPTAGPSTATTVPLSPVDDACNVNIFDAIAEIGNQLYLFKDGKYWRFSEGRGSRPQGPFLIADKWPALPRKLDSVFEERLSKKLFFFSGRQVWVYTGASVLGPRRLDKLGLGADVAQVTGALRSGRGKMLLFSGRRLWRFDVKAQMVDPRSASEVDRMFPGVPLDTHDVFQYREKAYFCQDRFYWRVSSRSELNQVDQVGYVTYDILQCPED

SMILES	IC50 [1] [nM]	IC50 (Collagenase 3) [nM]	IC50 (Interstitial collagenase) [nM]
COc1ccc(S(=O)(=O)N2CCCN(C(=O)N[C@@H](C)c3ccccc3)CC2C(=O)NO)cc1 (stereo partly specified)	9.2	10.4	312
COc1ccc(S(=O)(=O)N2CCCN(C(=O)OC(C)(C)C)CC2C(=O)NO)cc1 (stereo unspecified)	9.1	26	618
COc1ccc(S(=O)(=O)N2CCCN(C(=O)Nc3ccccc3)CC2C(=O)NO)cc1 (stereo unspecified)	18	17	309
COc1ccc(S(=O)(=O)N2CCCN(C(=O)c3ccccc3-c3ccccc3)CC2C(=O)NO)cc1 (stereo unspecified)	3.3	4.6	116
COc1ccc(S(=O)(=O)N2CCCN(C(=O)c3ccccc3)CC2C(=O)NO)cc1 (stereo unspecified)	2	2.2	45
COc1ccc(S(=O)(=O)N2CCCN(C(=O)C(C)(C)C)CC2C(=O)NO)cc1 (stereo unspecified)	4.8	11	251
COc1ccc(S(=O)(=O)N2CCCN(C(=O)c3ccc(OC(F)(F)F)cc3)CC2C(=O)NO)cc1 (stereo unspecified)	4	6.2	128
COc1ccc(S(=O)(=O)N2CCCN(Cc3ccccc3)CC2C(=O)NO)cc1 (stereo unspecified)	31	65	445
COc1ccc(S(=O)(=O)N2CCCN(C(=O)CN)CC2C(=O)NO)cc1 (stereo unspecified)	157	46	703
COc1ccc(S(=O)(=O)N2CCCNCC2C(=O)NO)cc1 (stereo unspecified)	60	5.1	91
COc1ccc(S(=O)(=O)N2CCCN(C(=O)CNC(=O)OC(C)(C)C)CC2C(=O)NO)cc1 (stereo unspecified)	23	16	690
O=C(NO)C1CN(C(=O)c2ccccc2)CCCN1S(=O)(=O)c1ccc(Oc2ccccc2)cc1 (stereo unspecified)	1.2	1.3	22
